In patent US4920134A, “2-O-pyrimidinyl glycerol derivatives” (Takeda Chemical Industries, Ltd., priority 1987, dated 1990):

Key:
Sarcoma 180 cells = assay: Antitumor activity in ICR mice inoculated with Sarcoma 180 cells; assay type: in vivo; conditions: Sarcoma 180, ICR mice, i.p., 0.33 mg/mouse; for life-span prolongation ratio T/C: 3 times (1 hour, 1 day, 2 days after inoculation), calculated only on survival days of died mice; for No. of survivors/No. of tested animals: 3 times, on the 60th day
Method: (§1) Antitumor activity of compounds in Examples
ICR mice were intraperitoneally inoculated with 1×10^5 Sarcoma 180 cells per mouse, and then intraperitoneally given 0.33 mg/mouse of a compound of Examples dissolved in physiological saline, three times in total, i.e. 1 hour, 1 day and 2 days after the inoculation. The life-span prolongation ratio* (T/C %) against the control group without medication and the number of surviving mice on the 60th day are shown in Table 2.
*Calculated only on the survival days of died mice.

HL-60 cells = assay: Proliferation-inhibitory effect against human myelocytic leukemia HL-60 cells ([3H]thymidine incorporation); assay type: cell-based; conditions: 20 h + 4 h with [3H]thymidine, 37° C.
Method: Proliferation-inhibitory effect (IC50) of compounds in Examples against human myelocytic leukemia HL-60 cells HL-60 cells (human leukemia cell line) were suspended in GIT medium (Wako Pure Chemicals) containing a test compound to a concentration of 2×10^5 cells/ml, and 0.2 ml of the suspension was transferred to each well of a microwell plate having 96 wells. […] To determine the amount of thymidine incorporated into the cells, an acid-insoluble fraction was collected by a glass filter, and the radioactivity was measured by a liquid scintillation counter. The concentration of the drug which was required for 50% reduction of incorporated radioactivity from that of the control group without medication was taken as the IC50 value of the compound.

[1] = tested on: murine breast cancer MM46 cells; assay: Antitumor activity in C3H mice inoculated with murine breast cancer MM46 cells; assay type: in vivo, C3 H mice; conditions: i.p., 0.25 mg/mouse per administration; for life-span prolongation ratio T/C: once a day for 4 days from 2nd day, calculated only on survived days of died mice; for No. of survivors/No. of tested animals: once a day for 4 days, on the 60th day
Description: as §1
C3 H mice were intraperitoneally inoculated with 1×10^4 murine breast cancer MM46 cells, and then intraperitoneally given a compound of Examples dissolved in physiological saline once a day for 4 days from the 2nd day after the inoculation. The life-span prolongation ratio* (T/C %) against the control group without medication and the number of surviving mice on the 60th day are shown in Table 3.
*Calculated only on the survived days of died mice

P388 cells = assay: Antitumor activity in CDF1 mice inoculated with P388 cells; assay type: in vivo; conditions: i.p., 0.5 mg/mouse, twice (1 hour and 5 days after inoculation)
Method: CDF1 mice (5 heads per group) were intraperitoneally inoculated with 1×10^6 P388 cells per mouse, and then intraperitoneally given 0.5 mg/mouse of the compound in Example 2 dissolved in physiological saline, twice in total, i.e. 1 hour and 5 days after the inoculation. The life-span prolongation ratio (T/C %) against the control group without medication was 151%.

Row | Compound | IC50 (HL-60 cells) [µg/mL] | life-span prolongation ratio T/C [1] [%] | No. of survivors/No. of tested animals [1] | also measured
1 | CCCCCCCCCCCCCCCCCCOCC(COCCOCC[N+](C)(C)C)Oc1ncccn1.[Cl-] (stereo not shown) [Example 1, N-2-[2-[3-Octadecyloxy-2-(pyrimidin-2-yloxy)propoxy]ethoxy]ethyl-N,N,N-trimethylammonium chloride] | 0.63 | 160 | 4/5 | life-span prolongation ratio T/C (Sarcoma 180 cells): 200%; No. of survivors/No. of tested animals (Sarcoma 180 cells): 0/5
2 | CCCCCCCCCCCCCCCCCCOCC(COCCOCC[N+](C)(C)C)Oc1ccc(Cl)nn1 (stereo not shown) [Example 2, N-[2-[2-[2-(3-Chloropyridazine-6-yloxy)-3-octadecyloxy]propoxy]ethoxy]ethyl-N,N,N-trimethylammonium chloride] | 1.25 | 174 | 1/5 | life-span prolongation ratio (T/C %) (P388 cells): 151%
3 | CCCCCCCCCCCCCCCCCCOCC(COCCOCC[N+](C)(C)C)Oc1cccnn1.[Cl-] (stereo not shown) [Example 3, N-[2-[2-[3-Octadecyloxy-2-(pyridazin-3-yloxy)propoxy]ethoxy]ethyl]-N,N,N-trimethylammonium chloride] | 0.32 |  |  | life-span prolongation ratio T/C (Sarcoma 180 cells): 269%; No. of survivors/No. of tested animals (Sarcoma 180 cells): 0/5
4 | CCCCCCCCCCCCCCCCCCOCC(COCCOCC[n+]1ccsc1)Oc1ncccn1.[Cl-] (stereo not shown) [Example 4, 3-[2-[2-[3-Octadecyloxy-2-(pyrimidin-2-yloxy)propoxy]ethoxy]ethyl]thiazolium chloride] | 2.5 |  |  | life-span prolongation ratio T/C (Sarcoma 180 cells): 244%; No. of survivors/No. of tested animals (Sarcoma 180 cells): 0/4
5 | CCCCCCCCCCCCCCCCCCOCC(COCCOCC[n+]1cccc(C(=O)[O-])c1)Oc1ncccn1 (stereo not shown) [Example 6, 1-[2-[2-[3-Octadecyloxy-2-(pyrimidin-2-yloxy)propoxy]ethoxy]ethyl]pyridinio-3-carboxylate] |  | 121 | 4/5 | 
6 | CCCCCCCCCCCCCCCCCCOCC(COCCOCC[n+]1cccc(O)c1)Oc1ncccn1.[Cl-] (stereo not shown) [Example 9, 3-Hydroxy-1-[2-[2-[3-octadecyloxy-2-(pyrimidin-2-yloxy)propoxy]ethoxy]ethyl]pyridinium chloride] |  | 132 | 1/3 | 

Now from value to compound, other results behind:

Row | IC50 (HL-60 cells) [µg/mL] | Compound | life-span prolongation ratio T/C [1] [%] | No. of survivors/No. of tested animals [1] | also measured
7 | 0.63 | CCCCCCCCCCCCCCCCCCOCC(COCCOCC[n+]1cccc(C(N)=O)c1)Oc1ncccn1.[Cl-] (stereo not shown) [Example 5, 3-Carbamoyl-1-[2-[2-[3-octadecyloxy-2-(pyrimidin-2-yloxy)propoxy]ethoxy]ethyl]pyridinium chloride] |  |  | 
8 | 1.25 | CCCCCCCCCCCCCCCCCCOCC(COCCOCC[n+]1ccc(C(C)(C)C)cc1)Oc1ncccn1 (stereo not shown) [Example 8, 4-t.-Butyl-1-[2-[2-[3-octadecyloxy-2-(pyrimidin-2-yloxy)propoxy]ethoxy]ethyl]pyridinium chloride] |  |  | 
9 | 0.63 | CCCCCCCCCCCCCCCCCCOCC(COCCOCC[n+]1ccn(C)c1)Oc1ncccn1.[Cl-] (stereo not shown) [Example 10, 1-Methyl-3-[2-[2-[3-octadecyloxy-2-(pyrimidin-2-yloxy)propoxy]ethoxy]ethyl]imidazolium chloride] |  |  | 
10 | 1.25 | CCCCCCCCCCCCCCCCCCOCC(COCCOCC[N+](C)(C)C)Oc1ccncn1.[Cl-] (stereo not shown) [Example 11, N-2-[2-[3-Octadecyloxy-2-(pyrimidin-4-yloxy)propoxy]ethoxy]ethyl-N,N,N-trimethylammonium chloride] |  |  | 
11 | 2.5 | CCCCCCCCCCCCCCCCCCOCC(COCCOCC[n+]1cccc(C(N)=O)c1)Oc1ccncn1.[Cl-] (stereo not shown) [Example 12, 3-Carbamoyl-1-[2-[2-[3-octadecyloxy-2-(pyrimidin-4-yloxy)propoxy]ethoxy]ethyl]pyridinium chloride] |  |  | 
12 | 2.5 | CCCCCCCCCCCCCCCCCCOCC(COCCOCCOCC[N+](C)(C)C)Oc1ncccn1.[Cl-] (stereo not shown) [Example 14, N-2-[2-[2-[3-Octadecyloxy-2-(pyrimidin-2-yloxy)propoxy]ethoxy]ethoxy]ethyl-N,N,N-trimethylammonium chloride] |  |  | 
